Data as given in US8247211B2, “Glycopeptide antibiotics” (American Cyanamid Company, priority 2001, dated 2012).
Converted amounts (≈) assume the structure as drawn.

Assays:
Assay in all cases: In vitro antibacterial evaluation: minimum inhibitory concentration (MIC), broth dilution method
Format in all cases: cell-based
Enterococcus sp. = conditions: 18 hours at 35° C.
Procedure: (§1) The minimum inhibitory concentration (MIC), the lowest concentration of the antibiotic which inhibits growth of the test organism, is determined by the broth dilution method using Muller-Hinton II […] (Baltimore Biological Laboratories) following the recommendations of the National Committee for Clinical Laboratory Standards [Methods for dilution antimicrobial susceptibility tests for bacteria that grow aerobically, approved standard M7-A2, National Committee for Clinical Laboratory Standards, Villanova, Pa].
(§2) An inoculum level of 5×10^5 CFU/mL, and a range of antibiotic concentrations (64-0.06 μg/mL) is used. […] The test organisms include a spectrum of Gram-positive bacteria comprised of Staphylococcus sp., Streptococcus sp. and Enterococcus sp. These organisms include recent clinical isolates that are resistant to methicillin, penicillin and/or vancomycin.

Escherichia coli = conditions: 18 hours at 35° C.
Procedure: as §1, §2

Staphylococcus sp. = conditions: for MIC Staphylococcus aureus (ATCC 29213): strain ATCC 29213; for MIC Staphylococcus aureus (GC 1131): strain GC 1131; for MIC Staphylococcus aureus (GC 4541): strain GC 4541; for MIC Staphylococcus aureus (GC 4542): strain GC 4542; for MIC Staphylococcus aureus-SMITH (GC 4543): strain GC 4543; for MIC Staphylococcus aureus (GC 4544): strain GC 4544; for MIC Staphylococcus aureus (GC 4545): strain GC 4545; for MIC Staphylococcus haemolyticus (GC 4546): strain GC 4546; for MIC Coagulase Negative Staphylococcus (GC 4547): strain GC 4547; for MIC Coagulase Negative Staphylococcus (GC 4548): strain GC 4548; for MIC Coagulase Negative Staphylococcus (GC 4549): strain GC 4549; for MIC Coagulase Negative Staphylococcus (GC 4551): strain GC 4551; for MIC Coagulase Negative Staphylococcus (ID-3941): strain ID-3941
Procedure: as §1, §2

Streptococcus sp. = conditions: 18 hours at 35° C.
Procedure: as §1, §2

[1] = broth dilution, inoculum 5×10^5 CFU/mL
[2] = broth dilution, 18 hours at 35° C.

CC(c1ccccc1)C1NC(=O)CNC(=O)C(CO)NC(=O)C(C(O)C2CNC(=N)N2C2OC(CO)C(O)C(O)C2O)NC(=O)C(C(O)C2CNC(=N)N2)NC(=O)C(Cc2ccc(OC3OC(CO)C(OC4OC5COC(C)(c6ccc(F)cc6)OC5C(O)C4O)C(O)C3O)cc2)NC1=O (stereo not drawn) [Example 216, Cyclo[glycyl-β-methylphenylalanyl-O-[4-O-[4,6-O-(4-fluoro-α-methylbenzylidene)hexopyranosyl]hexopyranosyl]tyrosyl-3-(2-iminoimidazolidin-4-yl)seryl-3-(3-hexopyranosyl-2-iminoimidazolidin-4-yl)serylseryl]]
MIC Enterococcus avium (GC 4558) (Enterococcus sp.; Enterococcus avium (GC 4558)): 4 µg/mL (≈ 2.83 µM)
MIC Enterococcus faecalis (ATCC 29212) (Enterococcus sp.; Enterococcus faecalis (ATCC 29212)): 4 µg/mL (≈ 2.83 µM)
MIC Enterococcus faecalis (GC 2242) (Enterococcus sp.; Enterococcus faecalis (GC 2242)): 4 µg/mL (≈ 2.83 µM)
MIC Enterococcus faecalis (GC 2691) (Enterococcus sp.; Enterococcus faecalis (GC 2691)): 4 µg/mL (≈ 2.83 µM)
MIC Enterococcus faecalis (GC 3059) (Enterococcus sp.; Enterococcus faecalis (GC 3059)): 4 µg/mL (≈ 2.83 µM)
MIC Enterococcus faecalis (GC 4552) (Enterococcus sp.; Enterococcus faecalis (GC 4552)): 4 µg/mL (≈ 2.83 µM)
MIC Enterococcus faecalis (GC 4553) (Enterococcus sp.; Enterococcus faecalis (GC 4553)): 4 µg/mL (≈ 2.83 µM)
MIC Enterococcus faecalis (GC 4554) (Enterococcus sp.; Enterococcus faecalis (GC 4554)): 4 µg/mL (≈ 2.83 µM)
MIC Enterococcus faecalis (GC 6189) (Enterococcus sp.; Enterococcus faecalis (GC 6189)): 4 µg/mL (≈ 2.83 µM)
MIC Enterococcus faecium (GC 2243) (Enterococcus sp.; Enterococcus faecium (GC 2243)): 4 µg/mL (≈ 2.83 µM)
MIC Enterococcus faecium (GC 4556) (Enterococcus sp.; Enterococcus faecium (GC 4556)): 4 µg/mL (≈ 2.83 µM)
MIC Enterococcus faecium (GC 4557) (Enterococcus sp.; Enterococcus faecium (GC 4557)): 4 µg/mL (≈ 2.83 µM)
MIC Enterococcus avium (GC 4558) (Enterococcus sp.; [1]): 4 µg/mL (≈ 2.83 µM)
MIC Enterococcus faecalis (ATCC 29212) (Enterococcus sp.; [1]): 4 µg/mL (≈ 2.83 µM)
MIC Enterococcus faecalis (GC 2242) (Enterococcus sp.; [1]): 4 µg/mL (≈ 2.83 µM)
MIC Enterococcus faecalis (GC 2691) (Enterococcus sp.; [1]): 4 µg/mL (≈ 2.83 µM)
MIC Enterococcus faecalis (GC 3059) (Enterococcus sp.; [1]): 4 µg/mL (≈ 2.83 µM)
MIC Enterococcus faecalis (GC 4552) (Enterococcus sp.; [1]): 4 µg/mL (≈ 2.83 µM)
MIC Enterococcus faecalis (GC 4553) (Enterococcus sp.; [1]): 4 µg/mL (≈ 2.83 µM)
MIC Enterococcus faecalis (GC 4554) (Enterococcus sp.; [1]): 4 µg/mL (≈ 2.83 µM)
MIC Enterococcus faecalis (GC 6189) (Enterococcus sp.; [1]): 4 µg/mL (≈ 2.83 µM)
MIC Enterococcus faecium (GC 2243) (Enterococcus sp.; [1]): 4 µg/mL (≈ 2.83 µM)
MIC Enterococcus faecium (GC 4556) (Enterococcus sp.; [1]): 4 µg/mL (≈ 2.83 µM)
MIC Enterococcus faecium (GC 4557) (Enterococcus sp.; [1]): 4 µg/mL (≈ 2.83 µM)
MIC Escherichia coli (ATCC 25922) (Escherichia coli; Escherichia coli (ATCC 25922)): 32 µg/mL (≈ 22.6 µM)
MIC Escherichia coli (GC 4559) (Escherichia coli; Escherichia coli (GC 4559)): 16 µg/mL (≈ 11.3 µM)
MIC Escherichia coli (GC 4560) (Escherichia coli; Escherichia coli (GC 4560)): 2 µg/mL (≈ 1.41 µM)
MIC Staphylococcus aureus (ATCC 29213) (Staphylococcus sp.): 2 µg/mL (≈ 1.41 µM)
MIC Staphylococcus aureus (GC 1131) (Staphylococcus sp.): 2 µg/mL (≈ 1.41 µM)
MIC Staphylococcus aureus (GC 3051) (Staphylococcus sp.; strain GC 3051): 2 µg/mL (≈ 1.41 µM)
MIC Staphylococcus aureus (GC 3053) (Staphylococcus sp.; strain GC 3053): 2 µg/mL (≈ 1.41 µM)
MIC Staphylococcus aureus (GC 4541) (Staphylococcus sp.): 1 µg/mL (≈ 0.707 µM)
MIC Staphylococcus aureus (GC 4542) (Staphylococcus sp.): 1 µg/mL (≈ 0.707 µM)
MIC Staphylococcus aureus-SMITH (GC 4543) (Staphylococcus sp.): 2 µg/mL (≈ 1.41 µM)
MIC Staphylococcus aureus (GC 4544) (Staphylococcus sp.): 2 µg/mL (≈ 1.41 µM)
MIC Staphylococcus aureus (GC 4545) (Staphylococcus sp.): 1 µg/mL (≈ 0.707 µM)
MIC Staphylococcus haemolyticus (GC 4546) (Staphylococcus sp.): 1 µg/mL (≈ 0.707 µM)
MIC Coagulase Negative Staphylococcus (GC 4547) (Staphylococcus sp.): 2 µg/mL (≈ 1.41 µM)
MIC Coagulase Negative Staphylococcus (GC 4548) (Staphylococcus sp.): 1 µg/mL (≈ 0.707 µM)
MIC Coagulase Negative Staphylococcus (GC 4549) (Staphylococcus sp.): 1 µg/mL (≈ 0.707 µM)
MIC Coagulase Negative Staphylococcus (GC 4551) (Staphylococcus sp.): 2 µg/mL (≈ 1.41 µM)
MIC Coagulase Negative Staphylococcus (GC 6257) (Staphylococcus sp.; strain GC 6257): 1 µg/mL (≈ 0.707 µM)
MIC Streptococcus agalactiae (GC 4564) (Streptococcus sp.; Streptococcus agalactiae (GC 4564)): 0.5 µg/mL (≈ 0.353 µM)
MIC Streptococcus pneumoniae (ATCC 6301) (Streptococcus sp.; Streptococcus pneumoniae (ATCC 6301)): 0.25 µg/mL (≈ 0.177 µM)
MIC Streptococcus pneumoniae (GC 1894) (Streptococcus sp.; Streptococcus pneumoniae (GC 1894)): <0.06 µg/mL
MIC Streptococcus pneumoniae (GC 4565) (Streptococcus sp.; Streptococcus pneumoniae (GC 4565)): 0.25 µg/mL (≈ 0.177 µM)
MIC Streptococcus pyogenes (GC 4563) (Streptococcus sp.; Streptococcus pyogenes (GC 4563)): 0.5 µg/mL (≈ 0.353 µM)
MIC Streptococcus agalactiae (GC 4564) (Streptococcus sp.; [1]): 0.5 µg/mL (≈ 0.353 µM)
MIC Streptococcus pneumoniae (ATCC 6301) (Streptococcus sp.; [1]): 0.25 µg/mL (≈ 0.177 µM)
MIC Streptococcus pneumoniae (GC 1894) (Streptococcus sp.; [1]): <0.06 µg/mL
MIC Streptococcus pneumoniae (GC 4565) (Streptococcus sp.; [1]): 0.25 µg/mL (≈ 0.177 µM)
MIC Streptococcus pyogenes (GC 4563) (Streptococcus sp.; [1]): 0.5 µg/mL (≈ 0.353 µM)

CCCCCC1OCC2OC(OC3C(CO)OC(Oc4ccc(CC5NC(=O)C(C(C)c6ccccc6)NC(=O)CNC(=O)C(CO)NC(=O)C(C(O)C6CNC(=N)N6C6OC(CO)C(O)C(O)C6O)NC(=O)C(C(O)C6CNC(=N)N6)NC5=O)cc4)C(O)C3O)C(O)C(O)C2O1 (stereo not drawn) [Example 108, Cyclo[glycyl-β-methylphenylalanyl-O-[4-O-(4,6-O-hexylidenehexonyranosyl)hexopyranosyl]-tyrosyl-3-(2-iminoimidazolidin-4-yl)seryl-3-(3-hexopyranosyl-2-iminoimidazolidin-4-yl)-serylseryl]]
MIC Enterococccus avium (GC 4558) (Enterococcus sp.; broth dilution, 5×10^5 CFU/mL): 2 µg/mL (≈ 1.45 µM)
MIC Enterococccus faecalis (ATCC 29212) (Enterococcus sp.; broth dilution, 5×10^5 CFU/mL): 2 µg/mL (≈ 1.45 µM)
MIC Enterococccus faecalis (GC 4552) (Enterococcus sp.; broth dilution, 5×10^5 CFU/mL): 2 µg/mL (≈ 1.45 µM)
MIC Enterococccus faecalis (GC 4553) (Enterococcus sp.; broth dilution, 5×10^5 CFU/mL): 2 µg/mL (≈ 1.45 µM)
MIC Enterococccus faecalis (GC 4554) (Enterococcus sp.; broth dilution, 5×10^5 CFU/mL): 2 µg/mL (≈ 1.45 µM)
MIC Enterococccus faecium (GC 2243) (Enterococcus sp.; broth dilution, 5×10^5 CFU/mL): 2 µg/mL (≈ 1.45 µM)
MIC Enterococccus faecium (GC 4556) (Enterococcus sp.; broth dilution, 5×10^5 CFU/mL): 2 µg/mL (≈ 1.45 µM)
MIC Enterococccus faecium (GC 4557) (Enterococcus sp.; broth dilution, 5×10^5 CFU/mL): 1 µg/mL (≈ 0.726 µM)
MIC Enterococcus faecalis (GC 2242) (Enterococcus sp.; broth dilution, 5×10^5 CFU/mL): 2 µg/mL (≈ 1.45 µM)
MIC Escherichia coli (ATCC 25922) (Escherichia coli; 5×10^5 CFU/mL): 32 µg/mL (≈ 23.2 µM)
MIC Staphylococcus aureus (ATCC 29213) (Staphylococcus sp.): 1 µg/mL (≈ 0.726 µM)
MIC Staphylococcus aureus (ATCC 29213) (Staphylococcus sp.; [2]): 1 µg/mL (≈ 0.726 µM)
MIC Staphylococcus aureus (GC 1131) (Staphylococcus sp.): 1 µg/mL (≈ 0.726 µM)
MIC Staphylococcus aureus (GC 1131) (Staphylococcus sp.; [2]): 1 µg/mL (≈ 0.726 µM)
MIC Staphylococcus aureus (GC 4541) (Staphylococcus sp.): 1 µg/mL (≈ 0.726 µM)
MIC Staphylococcus aureus (GC 4541) (Staphylococcus sp.; [2]): 1 µg/mL (≈ 0.726 µM)
MIC Staphylococcus aureus (GC 4542) (Staphylococcus sp.): 1 µg/mL (≈ 0.726 µM)
MIC Staphylococcus aureus (GC 4542) (Staphylococcus sp.; [2]): 1 µg/mL (≈ 0.726 µM)
MIC Staphylococcus aureus-SMITH (GC 4543) (Staphylococcus sp.; 18 hours at 35° C.): 1 µg/mL (≈ 0.726 µM)
MIC Staphylococcus aureus-SMITH (GC 4543) (Staphylococcus sp.; [2]): 1 µg/mL (≈ 0.726 µM)
MIC Staphylococcus aureus (GC 4544) (Staphylococcus sp.): 1 µg/mL (≈ 0.726 µM)
MIC Staphylococcus aureus (GC 4544) (Staphylococcus sp.; [2]): 1 µg/mL (≈ 0.726 µM)
MIC Staphylococcus aureus (GC 4545) (Staphylococcus sp.): 1 µg/mL (≈ 0.726 µM)
MIC Staphylococcus aureus (GC 4545) (Staphylococcus sp.; [2]): 1 µg/mL (≈ 0.726 µM)
MIC Staphylococcus haemolyticus (GC 4546) (Staphylococcus sp.): 1 µg/mL (≈ 0.726 µM)
MIC Staphylococcus haemolyticus (GC 4546) (Staphylococcus sp.; [2]): 1 µg/mL (≈ 0.726 µM)
MIC Coagulase Negative Staphylococcus (GC 4547) (Staphylococcus sp.): 1 µg/mL (≈ 0.726 µM)
MIC Coagulase Negative Staphylococcus (GC 4547) (Staphylococcus sp.; [2]): 1 µg/mL (≈ 0.726 µM)
MIC Coagulase Negative Staphylococcus (GC 4548) (Staphylococcus sp.): <0.5 µg/mL
MIC Coagulase Negative Staphylococcus (GC 4548) (Staphylococcus sp.; [2]): <0.5 µg/mL
MIC Coagulase Negative Staphylococcus (GC 4549) (Staphylococcus sp.): 1 µg/mL (≈ 0.726 µM)
MIC Coagulase Negative Staphylococcus (GC 4549) (Staphylococcus sp.; [2]): 1 µg/mL (≈ 0.726 µM)
MIC Coagulase Negative Staphylococcus (GC 4551) (Staphylococcus sp.): 1 µg/mL (≈ 0.726 µM)
MIC Coagulase Negative Staphylococcus (GC 4551) (Staphylococcus sp.; [2]): 1 µg/mL (≈ 0.726 µM)
MIC Coagulase Negative Staphylococcus (ID-3941) (Staphylococcus sp.): 1 µg/mL (≈ 0.726 µM)
MIC Coagulase Negative Staphylococcus (ID-3941) (Staphylococcus sp.; [2]): 1 µg/mL (≈ 0.726 µM)
MIC Streptococcus agalactiae (GC 4564) (Streptococcus sp.; broth dilution, 5×10^5 CFU/mL): <0.5 µg/mL
MIC Streptococcus pneumoniae (GC 4565) (Streptococcus sp.; broth dilution, 5×10^5 CFU/mL): <0.5 µg/mL
MIC Streptococcus pyogenes (ID-3187) (Streptococcus sp.; broth dilution, 5×10^5 CFU/mL): <0.5 µg/mL
